Several values for one entry are separate records, joined by “and”; a condition that tells them apart may be missing. Identical values can stand only once. Like-named read-outs stand apart in the source and are kept apart here.
How the values were obtained:
[1] = molecular target: TbAQP2/HAPT1 (Trypanosoma brucei brucei, UniProt Q6ZXT3); assay: cell-based; type: cell-based
[2] = test system: T. b. brucei 2T1; assay: Drug sensitivity assay (resazurin); type: cell-based; details: Trypanosoma brucei, 48 h drug + 24 h resazurin, read-out: EC50 control 2T1 AVG
Description: The tbaqp2/tbaqp3 null cells ([Baker et al., 2012]) and tbaqp1-2-3 null cells ([Jeacock et al., 2017]) (both obtained from David Horn, University of Dundee, UK) are derived from the 2T1 strain of T. b. brucei ([Alsford and Horn, 2008]). The CRK12 RNAi cell line^28 was obtained from Dr Tansy Hammarton (University of Glasgow, UK) and is also based on the 2T1 cell line; RNAi expression was induced with 1 µg/ml tetracycline in the medium. All experiments were performed with bloodstream form trypanosomes grown in vitro in HMI-11 medium as described ([Wallace et al., 2002]) at 37°C in a 5% CO2 atmosphere. Cultures were routinely maintained in 10 ml of this medium, being seeded at 5 × 10^4 cells/ml and passed to fresh medium at reaching approximately 3 × 10^6 cells/ml after 48 hr. For transport experiments 150 or 200 ml of culture was seeded at the same density in large flasks and incubated until the culture reached late-log phase.
Drug sensitivity assays for T. b. brucei bloodstream forms used the cell viability dye resazurin (Sigma) and were performed exactly as described ([Wallace et al., 2002]; [Bridges et al., 2007]) in 96-well plates with doubling dilutions of test compound, starting at 100 µM, over 2 rows of the plate (23 dilutions plus no-drug control). Incubation time with test compound was 48 hr (37°C/5% CO2), followed by an additional 24 hr in the presence of the dye.

[3] = test system: tbaqp2/tbaqp3 null cells; assay: microbe, parasite or virus in culture; type: cell-based, Trypanosoma brucei brucei
[4] = test system: tbaqp2/tbaqp3 null cells expressing TbAQP2WT; assay: microbe, parasite or virus in culture; type: cell-based, Trypanosoma brucei brucei; details: for EC50: Trypanosoma brucei
[5] = test system: tbaqp2/tbaqp3 null cells expressing TbAQP2^S131P/S263A; type: cell-based, Trypanosoma brucei brucei
[6] = test system: tbaqp2/tbaqp3 null cells expressing TbAQP2^L258Y; type: cell-based, Trypanosoma brucei brucei
[7] = test system: tbaqp2/tbaqp3 null cells expressing TbAQP2^I110W; type: cell-based, Trypanosoma brucei brucei
[8] = test system: tbaqp2/tbaqp3 null cells expressing TbAQP2^L264R; type: cell-based, Trypanosoma brucei brucei
[9] = test system: tbaqp2/tbaqp3 null cells expressing TbAQP2^I110W/L264R; type: cell-based, Trypanosoma brucei brucei
[10] = test system: tbaqp2/tbaqp3 null cells expressing TbAQP2 L84W; assay: microbe, parasite or virus in culture; type: cell-based, Trypanosoma brucei brucei
[11] = test system: tbaqp2/tbaqp3 null cells expressing TbAQP2 L118W; assay: microbe, parasite or virus in culture; type: cell-based, Trypanosoma brucei brucei
[12] = test system: tbaqp2/tbaqp3 null cells expressing TbAQP2 L218W; assay: microbe, parasite or virus in culture; type: cell-based, Trypanosoma brucei brucei
[13] = test system: tbaqp2/tbaqp3 null cells expressing TbAQP2 L84M; assay: microbe, parasite or virus in culture; type: cell-based, Trypanosoma brucei brucei
[14] = test system: tbaqp2/tbaqp3 null cells expressing TbAQP2 L118M; assay: microbe, parasite or virus in culture; type: cell-based, Trypanosoma brucei brucei
[15] = test system: tbaqp2/tbaqp3 null cells expressing TbAQP2 L218M; assay: microbe, parasite or virus in culture; type: cell-based, Trypanosoma brucei brucei
[16] = test system: tbaqp2 null (AQP2-KO); assay: Drug sensitivity assay (resazurin); type: cell-based; details: Trypanosoma brucei, read-out: EC50 AQP2-KO AVG, AQP2-KO / tbaqp2 null; 48 h drug + 24 h resazurin
[17] = test system: tbaqp2/tbaqp3 null cells expressing TbAQP2^I190T; type: cell-based, Trypanosoma brucei brucei
[18] = test system: tbaqp2/tbaqp3 null cells expressing TbAQP2^W192G; type: cell-based, Trypanosoma brucei brucei
[19] = test system: tbaqp2/tbaqp3 null cells expressing TbAQP2^I190T/W192G; type: cell-based, Trypanosoma brucei brucei
[20] = test system: tbaqp2/tbaqp3 null cells expressing TbAQP3; type: cell-based, Trypanosoma brucei brucei
[21] = test system: tbaqp2/tbaqp3 null cells expressing TbAQP3^W102I/R256L; type: cell-based, Trypanosoma brucei brucei
[22] = test system: tbaqp2/tbaqp3 null cells expressing TbAQP3^W102I/R256L/Y250L; type: cell-based, Trypanosoma brucei brucei
[23] = Trypanosoma brucei, read-out: EC50, MEAN
[24] = Trypanosoma brucei, read-out: EC50, MEAN (nM)
[25] = Trypanosoma brucei, read-out: EC50, single repeats

TbAQP2/HAPT1, sequence (Q6ZXT3 whole entry): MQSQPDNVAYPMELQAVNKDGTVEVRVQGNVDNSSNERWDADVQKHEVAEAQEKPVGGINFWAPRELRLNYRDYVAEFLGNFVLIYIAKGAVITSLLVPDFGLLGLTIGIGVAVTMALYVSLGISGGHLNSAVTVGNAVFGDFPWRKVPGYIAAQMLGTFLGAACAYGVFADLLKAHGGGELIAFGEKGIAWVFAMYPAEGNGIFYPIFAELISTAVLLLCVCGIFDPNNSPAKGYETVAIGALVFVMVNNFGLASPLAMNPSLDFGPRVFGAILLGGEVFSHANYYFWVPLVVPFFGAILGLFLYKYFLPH

In the case of N=C(N)c1ccc(/N=N/Nc2ccc(C(=N)N)cc2)cc1 [Diminazene], the ΔG0 [1] is reported as -5.74 kcal/mol, the “δ(ΔG0)” value [1] is reported as 4.45 kcal/mol and the Ki ([1]; HAPT Ki, AVG) is reported as 62500 nM. The Ki ([1]; Ki) was 63000 nM, the EC50 [2] was 122 nM and the “EC50 (% of aqp2/aqp3 null), MEAN” value [3] was 100.00 % of aqp2/aqp3 null. The “EC50, MEAN (% KO)” value [3] was 100.00 % KO, the “EC50, percent of AQP2/3 null EC50” value [3] was 100.00% and the “EC50 as percent of AQP2/3 null EC50, MEAN” value (shortened to “EC50 as percent … MEAN”) [3] was 100.00%. The “EC50 as percent of AQP2/3 null EC50, single repeats” value (from here on “EC50 as percent … single repeats”) [3] was 100%, the EC50 [3, 23] was 76 nM and the EC50 [3, 24] was 175 nM. For the same molecule, the “EC50 (% of aqp2/aqp3 null), MEAN” value [4] was 97.55 % of aqp2/aqp3 null, the “EC50, MEAN (% KO)” value [4] was 98.90 % KO and the “EC50, percent of AQP2/3 null EC50” value [4] was 96.75% and 102.22% and 102.99% and 78.60%. The “EC50 as percent … MEAN” value [4] was 102.99%, the EC50 ([4]; read-out: EC50, MEAN) was 74.2 nM and the EC50 ([4]; read-out: EC50, MEAN (nM)) was 149 nM. The “EC50, percent of AQP2/3 null EC50” value [5] was 93.48%, the “EC50, percent of AQP2/3 null EC50” value [6] was 105.69% and the “EC50, percent of AQP2/3 null EC50” value [7] was 114.65%. The “EC50, percent of AQP2/3 null EC50” value [8] was 99.35%, the “EC50 as percent … MEAN” value [9] was 108.15% and the “EC50 (% of aqp2/aqp3 null), MEAN” value [10] was 113.28 % of aqp2/aqp3 null. The “EC50 (% of aqp2/aqp3 null), single repeats” value [10] was 126.86 % of aqp2/aqp3 null and 125.65 % of aqp2/aqp3 null and 87.33 % of aqp2/aqp3 null, the EC50 [10, 23] was 86.1 nM and the EC50 [10, 25] was 96.4 nM. For the same molecule, the EC50 ([10]; read-out: EC50, single repeats) was 95.5 nM and 66.4 nM, the “EC50 (% of aqp2/aqp3 null), MEAN” value [11] was 95.82 % of aqp2/aqp3 null and the “EC50 (% of aqp2/aqp3 null), single repeats” value [11] was 118.42 % of aqp2/aqp3 null and 101.85 % of aqp2/aqp3 null and 67.18 % of aqp2/aqp3 null. The EC50 [11, 23] was 72.8 nM, the EC50 [11, 25] was 90 nM and the EC50 ([11]; read-out: EC50, single repeats) was 77.4 nM and 51.1 nM. The “EC50 (% of aqp2/aqp3 null), MEAN” value [12] was 38.99 % of aqp2/aqp3 null, the “Sensitisation relative to tbaqp2/tbaqp3 null” value [12] was ~ 2 fold and the EC50 [12, 23] was 29.6 nM. The “EC50, MEAN (% KO)” value [13] was 99.61 % KO, the EC50 [13, 24] was 145 nM and the “EC50, MEAN (% KO)” value [14] was 93.77 % KO. The EC50 [14, 24] was 177 nM, the “EC50, MEAN (% KO)” value [15] was 48.28 % KO and the “Sensitisation relative to tbaqp2/tbaqp3 null” value [15] was ~ 2 fold. The EC50 [15, 24] was 54 nM, the EC50 [15, 25] was 38.7 nM and the EC50 ([15]; read-out: EC50, single repeats) was 61.5 nM and 61.9 nM and 39.1 nM and 34.8 nM and 41.6 nM. It also gave an EC50 [16] of 108 nM.
For Cl.Cl.NCCS[As](SCCN)c1ccc(Nc2nc(N)nc(N)n2)cc1 [Cymelarsan], the “EC50 (% of aqp2/aqp3 null), MEAN” value [3] was 100.00 % of aqp2/aqp3 null, the “EC50 (% of aqp2/aqp3 null), single repeats” value [3] was 100.09 % of aqp2/aqp3 null and 107.11 % of aqp2/aqp3 null and 92.80 % of aqp2/aqp3 null and 105.96 % of aqp2/aqp3 null and 97.29 % of aqp2/aqp3 null and 96.75 % of aqp2/aqp3 null and 92.36 % of aqp2/aqp3 null and 100.54 % of aqp2/aqp3 null and the “EC50, MEAN (% KO)” value [3] was 100.00 % KO. For the same molecule, the “EC50, percent of AQP2/3 null EC50” value [3] was 100.00%, the “EC50 as percent … MEAN” value [3] was 100.00% and the “EC50 as percent … single repeats” value [3] was 100.0%. For the same molecule, the EC50 ([3]; read-out: EC50, MEAN) was 19.9 nM, the “EC50 (% of aqp2/aqp3 null), MEAN” value [4] was 14.85 % of aqp2/aqp3 null and the “EC50, MEAN (% KO)” value [4] was 21.40 % KO. For the same molecule, the “EC50, percent of AQP2/3 null EC50” value [4] was 11.82% and 12.84% and 17.72% and 13.38%, the “EC50 as percent … MEAN” value [4] was 12.527% and 12.55% and the “EC50, percent of AQP2/3 null EC50” value [5] was 58.29%. The “EC50, percent of AQP2/3 null EC50” value [6] was 33.16%, the “EC50, percent of AQP2/3 null EC50” value [7] was 106.64% and the “EC50, percent of AQP2/3 null EC50” value [8] was 99.62%. The “EC50 as percent … MEAN” value [17] was 64.67%, the “EC50 as percent … MEAN” value [18] was 42.01% and the “EC50 as percent … single repeats” value [18] was 38.89% and 33.6754% and 48.5349% and 30.3438% and 47.7536% and 38.5508% and 45.4365% and 52.8716%. The “EC50 as percent … MEAN” value [19] was 95.01%, the “EC50 as percent … single repeats” value [19] was 84.5691% and 96.0784% and 104.69% and 94.6857% and the “EC50 (% of aqp2/aqp3 null), MEAN” value [10] was 100.47 % of aqp2/aqp3 null. For the same molecule, the “EC50 (% of aqp2/aqp3 null), single repeats” value [10] was 103.60 % of aqp2/aqp3 null and 103.34 % of aqp2/aqp3 null and 94.46 % of aqp2/aqp3 null, the EC50 ([10]; read-out: EC50, MEAN) was 20 nM and the EC50 ([10]; read-out: EC50, single repeats) was 20.6 nM (2×) and 18.8 nM. For the same molecule, the “EC50 (% of aqp2/aqp3 null), MEAN” value [11] was 92.14 % of aqp2/aqp3 null, the “EC50 (% of aqp2/aqp3 null), single repeats” value [11] was 88.70 % of aqp2/aqp3 null and 124.82 % of aqp2/aqp3 null and 62.91 % of aqp2/aqp3 null and the EC50 ([11]; read-out: EC50, MEAN) was 18.4 nM. For the same molecule, the EC50 ([11]; read-out: EC50, single repeats) was 17.7 nM and 24.9 nM and 12.5 nM, the “EC50 (% of aqp2/aqp3 null), MEAN” value [12] was 94.01 % of aqp2/aqp3 null and the “EC50 (% of aqp2/aqp3 null), single repeats” value [12] was 100.13 % of aqp2/aqp3 null and 113.78 % of aqp2/aqp3 null and 68.13 % of aqp2/aqp3 null. The EC50 ([12]; read-out: EC50, MEAN) was 18.7 nM, the EC50 ([12]; read-out: EC50, single repeats) was 20 nM and 22.7 nM and 13.6 nM and the “EC50, MEAN (% KO)” value [13] was 62.94 % KO. For the same molecule, the EC50 ([13]; read-out: EC50, MEAN) was 13.9 nM, the EC50 ([13]; read-out: EC50, single repeats) was 14.7 nM and 14.5 nM and 12.4 nM and 13.7 nM and 10.5 nM and 17.1 nM and the “EC50 (% of aqp2/aqp3 null), single repeats” value [14] was 106.00 % of aqp2/aqp3 null and 109.38 % of aqp2/aqp3 null and 101.17 % of aqp2/aqp3 null and 149.03 % of aqp2/aqp3 null and 147.52 % of aqp2/aqp3 null. The “EC50, MEAN (% KO)” value [14] was 122.62 % KO, the EC50 ([14]; read-out: EC50, MEAN) was 34.3 nM and the EC50 ([14]; read-out: EC50, single repeats) was 34.5 nM and 35.6 nM and 32.9 nM and 24.6 nM and 24.4 nM. For the same molecule, the “EC50, MEAN (% KO)” value [15] was 58.15 % KO, the EC50 ([15]; read-out: EC50, MEAN) was 11.2 nM and the EC50 ([15]; read-out: EC50, single repeats) was 11.4 nM and 11.3 nM and 10.9 nM and 12.3 nM and 12.4 nM and 15.8 nM. The “EC50, percent of AQP2/3 null EC50” value [20] was 114 ± 5%, the “EC50, percent of AQP2/3 null EC50” value [21] was 105 ± 8% and the “EC50, percent of AQP2/3 null EC50” value [22] was 159 ± 8%.
